ChEMBL document CHEMBL1201862, “PubChem BioAssay data set” (2004)
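Following 48 hours of exposure in 96-well plates, responses at five concentrations were used to interpolate endpoints linearly. GI50 = concentration required for 50% inhibition of growth.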 Calls of active or inactive are those of the source. Rule as the data show it: active = GI50 up to about 1.1 µM and inactive = higher.

Key:
Assay in all cases: NCI tumour cell line growth inhibition, 48 h
786-0 = system: 786-0
A498 = system: A498
A549 = system: A549
CCRF-CEM = system: CCRF-CEM
HCT-116 = system: HCT-116
HL-60 = system: HL-60
HOP-62 = system: HOP-62
HOP-92 = system: HOP-92
KM12 = system: KM12
LOX IMVI = system: LOX IMVI
M14 = system: M14
Malme-3M = system: Malme-3M
NCI-H226 = system: NCI-H226
NCI-H23 = system: NCI-H23
NCI-H522 = system: NCI-H522
SF-268 = system: SF-268
SK-OV-3 = system: SK-OV-3
SN12C = system: SN12C
T47D = system: T47D

| Structure (SMILES) | GI50 (786-0) | GI50 (A498) | GI50 (A549) | GI50 (CCRF-CEM) | GI50 (HCT-116) | GI50 (HL-60) | GI50 (HOP-62) | GI50 (HOP-92) | GI50 (KM12) | GI50 (LOX IMVI) | GI50 (M14) | GI50 (Malme-3M) | GI50 (NCI-H226) | GI50 (NCI-H23) | GI50 (NCI-H522) | GI50 (SF-268) | GI50 (SK-OV-3) | GI50 (SN12C) | GI50 (T47D) |
| --- | --- | --- | --- | --- | --- | --- | --- | --- | --- | --- | --- | --- | --- | --- | --- | --- | --- | --- | --- |
| OC(CN(CCCl)CCCl)C(O)C(O)C(O)CN(CCCl)CCCl (stereo not given) | 91 µM (inactive) | > 100 µM (inactive) | > 100 µM (inactive) | 37.6 µM (inactive) | > 100 µM (inactive) | 5.04 µM (inactive) | > 100 µM (inactive) | > 100 µM (inactive) | > 100 µM (inactive) | 27.4 µM (inactive) | > 100 µM (inactive) | 85.7 µM (inactive) | > 100 µM (inactive) | 63.1 µM (inactive) | 47.3 µM (inactive) | 41.6 µM (inactive) | > 100 µM (inactive) | 23.2 µM (inactive) | 30.5 µM (inactive) |
| Clc1ccc(-c2cc(-c3nc4ccccc4[nH]3)no2)cc1 | 24.3 µM (inactive) | 18.9 µM (inactive) | 19.1 µM (inactive) | 18.7 µM (inactive) | 16.6 µM (inactive) | 7.4 µM (inactive) | 19.5 µM (inactive) | 33.7 µM (inactive) | 20.8 µM (inactive) | 19.5 µM (inactive) | 18.4 µM (inactive) | 19.3 µM (inactive) | 27.4 µM (inactive) | 18.9 µM (inactive) | 19.2 µM (inactive) | 21.3 µM (inactive) | 18.6 µM (inactive) | 18.6 µM (inactive) | 11.7 µM (inactive) |
| CC(=O)[C@]1(O)Cc2c(O)c3c(c(O)c2C(OC2OC(C)C(O)C(O)C2F)C1)C(=O)c1ccccc1C3=O (stereo not given in full) | 0.0288 µM (active) | 0.0581 µM (active) | 0.019 µM (active) | < 0.0141 µM (active) | 0.0565 µM (active) | < 0.01 µM (active) | < 0.0189 µM (active) | 0.055 µM (active) | 0.158 µM (active) | 0.0713 µM (active) | 0.0951 µM (active) | 0.208 µM (active) | 0.0265 µM (active) | 0.0371 µM (active) | 0.316 µM (active) | 0.084 µM (active) | 0.135 µM (active) | 0.0247 µM (active) | 0.0395 µM (active) |
| O=c1[nH]ncc2[nH]c3c(c12)CCCc1ccccc1-3 | 33 µM (inactive) | 27.6 µM (inactive) | 33.3 µM (inactive) | 39.9 µM (inactive) | 27.4 µM (inactive) | 21.8 µM (inactive) | 67 µM (inactive) | 72.3 µM (inactive) | 37.4 µM (inactive) | 44.3 µM (inactive) | 46.6 µM (inactive) | 96.2 µM (inactive) | 38.7 µM (inactive) | 40.6 µM (inactive) | 48.9 µM (inactive) | 23.6 µM (inactive) | 28.6 µM (inactive) | 63.1 µM (inactive) | 46.9 µM (inactive) |
| C[n+]1cccc(/C=C/c2ccc3cccc(O)c3n2)c1 | > 100 µM (inactive) | > 100 µM (inactive) | 39.9 µM (inactive) | 45.7 µM (inactive) | > 100 µM (inactive) | 28.1 µM (inactive) | 59 µM (inactive) | > 100 µM (inactive) | > 100 µM (inactive) | > 100 µM (inactive) | > 100 µM (inactive) | 19.3 µM (inactive) | > 100 µM (inactive) | 58.2 µM (inactive) | 24.8 µM (inactive) | 26.9 µM (inactive) | > 100 µM (inactive) | 32.1 µM (inactive) | 83.2 µM (inactive) |
| Clc1nncc2sc(-c3ccccc3)nc12 | 85.9 µM (inactive) | 40.6 µM (inactive) | 53.8 µM (inactive) | 29 µM (inactive) | 16.9 µM (inactive) | 4.14 µM (inactive) | 17.8 µM (inactive) | 5.06 µM (inactive) | 28.9 µM (inactive) | 14.7 µM (inactive) | 17.7 µM (inactive) | 22.1 µM (inactive) | 26 µM (inactive) | 17.5 µM (inactive) | 8.73 µM (inactive) | 16.3 µM (inactive) | 28.7 µM (inactive) | 21 µM (inactive) | 28.5 µM (inactive) |
| CCOC(=O)C(=CNc1ccc(NC2=NCC(C)S2)cc1)C(=O)OCC (stereo not given) | 26.1 µM (inactive) | 28.8 µM (inactive) | 35.6 µM (inactive) | 0.0908 µM (active) | 35.2 µM (inactive) | 2.38 µM (inactive) | 50 µM (inactive) | 30.4 µM (inactive) | 16.6 µM (inactive) | 30.1 µM (inactive) | 31.5 µM (inactive) | 24.3 µM (inactive) | 42.4 µM (inactive) | 28.1 µM (inactive) | 2.66 µM (inactive) | 33.1 µM (inactive) | 60 µM (inactive) | 41 µM (inactive) | 24.8 µM (inactive) |
| N/C(=N/c1ccc(O)cc1)S(=O)O | > 100 µM (inactive) | > 100 µM (inactive) | > 100 µM (inactive) | 89.9 µM (inactive) | > 100 µM (inactive) | > 100 µM (inactive) | > 100 µM (inactive) | > 100 µM (inactive) | > 100 µM (inactive) | > 100 µM (inactive) | > 100 µM (inactive) | > 100 µM (inactive) | 37.2 µM (inactive) | > 100 µM (inactive) | > 100 µM (inactive) | > 100 µM (inactive) | 41.5 µM (inactive) | > 100 µM (inactive) | > 100 µM (inactive) |
| O=NN(Cc1ccc(Cl)cc1)C(C(=O)O)c1ccccc1 (stereo not given) | > 100 µM (inactive) | > 100 µM (inactive) | > 100 µM (inactive) | > 100 µM (inactive) | > 100 µM (inactive) | > 100 µM (inactive) | > 100 µM (inactive) | > 100 µM (inactive) | > 100 µM (inactive) | > 100 µM (inactive) | > 100 µM (inactive) | > 100 µM (inactive) | > 100 µM (inactive) | > 100 µM (inactive) | > 100 µM (inactive) | > 100 µM (inactive) | > 100 µM (inactive) | > 100 µM (inactive) | > 100 µM (inactive) |
| CC(C)(C)c1cc(C(C)(C)C)c2sc(=S)oc2c1O | 7.45 µM (inactive) | 12.9 µM (inactive) | 6.55 µM (inactive) | 3.76 µM (inactive) | 6.25 µM (inactive) | 7.45 µM (inactive) | 14.9 µM (inactive) | 14.1 µM (inactive) | 4.79 µM (inactive) | 5.05 µM (inactive) | 10.4 µM (inactive) | 15.8 µM (inactive) | 15.2 µM (inactive) | 5.37 µM (inactive) | 5.9 µM (inactive) | 3.4 µM (inactive) | 17.9 µM (inactive) | 6.14 µM (inactive) | 5.19 µM (inactive) |
| COc1ccc(NC(=S)NN=C(C)c2cccc(C(C)=NNC(=S)Nc3ccc(OC)cc3)n2)cc1 | 14.7 µM (inactive) | > 100 µM (inactive) | 23.7 µM (inactive) | 3.33 µM (inactive) | 11.6 µM (inactive) | 20.5 µM (inactive) | 26.1 µM (inactive) | 45.6 µM (inactive) | 6.44 µM (inactive) | 13.6 µM (inactive) | 11.2 µM (inactive) | 13.4 µM (inactive) | 47.9 µM (inactive) | 64 µM (inactive) | 33.8 µM (inactive) | > 100 µM (inactive) | 21.4 µM (inactive) | > 100 µM (inactive) | > 100 µM (inactive) |
| COc1ccc(Cn2c3c(cc(OS(=O)(=O)C(F)(F)F)c2=O)Cc2ccccc2-3)cc1 | 4.89 µM (inactive) | > 50 µM (inactive) | 16.5 µM (inactive) | 6.27 µM (inactive) | 14.9 µM (inactive) | 10.7 µM (inactive) | 21.9 µM (inactive) | 22.3 µM (inactive) | 26.4 µM (inactive) | 10 µM (inactive) | 6.65 µM (inactive) | 16.2 µM (inactive) | 26.7 µM (inactive) | 19.7 µM (inactive) | 22 µM (inactive) | 12.8 µM (inactive) | 25.1 µM (inactive) | 16.9 µM (inactive) | 32.3 µM (inactive) |
| COc1cc(C(=O)O)ccc1OS(=O)(=O)O | > 100 µM (inactive) | > 10 µM (inactive) | > 100 µM (inactive) | > 100 µM (inactive) | > 100 µM (inactive) | > 100 µM (inactive) | > 100 µM (inactive) | > 100 µM (inactive) | > 100 µM (inactive) | > 100 µM (inactive) | > 100 µM (inactive) | > 100 µM (inactive) | > 100 µM (inactive) | > 100 µM (inactive) | > 100 µM (inactive) | > 100 µM (inactive) | > 100 µM (inactive) | > 100 µM (inactive) | > 100 µM (inactive) |
| O=[N+]([O-])O [NITRIC ACID] | > 100 µM (inactive) | > 100 µM (inactive) | > 100 µM (inactive) | > 100 µM (inactive) | > 100 µM (inactive) | > 100 µM (inactive) | > 100 µM (inactive) | > 100 µM (inactive) | > 100 µM (inactive) | > 100 µM (inactive) | > 100 µM (inactive) | > 100 µM (inactive) | > 100 µM (inactive) | > 100 µM (inactive) | > 100 µM (inactive) | > 100 µM (inactive) | > 100 µM (inactive) | > 100 µM (inactive) | > 100 µM (inactive) |
| Oc1ccc2ccccc2c1-c1nnc(CCCCCCCCc2nnc(-c3c(O)ccc4ccccc34)o2)o1 | 1.1 µM (active) | 16.5 µM (inactive) | 3.85 µM (inactive) | 0.448 µM (active) | 1.18 µM (inactive) | 0.319 µM (active) | 1.59 µM (inactive) | 9.82 µM (inactive) | 27.2 µM (inactive) | 1.01 µM (active) | 1.34 µM (inactive) | 3.1 µM (inactive) | 10.4 µM (inactive) | 5.21 µM (inactive) | 0.63 µM (active) | 0.834 µM (active) | 18.1 µM (inactive) | 1.21 µM (inactive) | 4 µM (inactive) |
